Measurements: patent US20190382850A1, “METHOD FOR IDENTIFYING MITOCHONDRIAL DNA IN EXTRACELLULAR VESICLES AND TREATMENT OF MTDNA-RELATED DISORDERS AND CANCER” (Memorial Sloan-Kettering Cancer Center, priority 2017, published 2019)

Legend:
[1] = system: mitochondrial complex protein; assay: Western blot of OXPHOS protein cocktail in HT-treated cells; format: cell-based, human; settings: fulvestrant; FIG. 11d
Text: (Panel a), Representative bright field images of MCF7 po cells±CAF-EVs (3×10^9/weekly for 40 days). Bar graph of number of MS is also reported at the endpoint of the experiment (40 days). (Panel b), HT led to decreased expression of mRNA involved in protein synthesis and OXPHOS signaling with z score and -log (p-values)- as determined by Ingenuity analysis of microarray data from RNA isolated FIG. 5a (MCF7), single P values are also reported. (Panel c), OXPHOS potential determined as changes of respiration rate under mitochondrial stressors by seahorse technology (oligomycin 1 μM, rotenone 100 nM) in cancer cells isolated from FIG. 5b (MCF7, PT1). […] (Panel e), Mitochondrial Complex I/IV activity quantification as determined by nmol/min/mg of protein in luminal breast cancer cell lines from panel a. […]
For immunoblotting assays, cells were lysed in buffer (50 mmol/L Tris at pH 7.5, 150 mmol/L NaCl, 5 μg/mL aprotinin, pepstatin, 1% NP-40, lmmol/L EDTA, 0.25% deoxycholate, and protease inhibitor cocktail tablet, Sigma). […] The enrichment of CAFs in xenografts was determined by desmin immunohistochemistry (IHC) in tumor-derived sections. […] Viable cells were determined 7-14 days after treatment using trypan blue and cell counting using bright field microscopy or DAPI exclusion staining by flow cytometry (Dako Cytomation). […]

[2] = system: luminal breast cancer cells and xenograft derived cells; assay: mtDNA level (qPCR copy number) in HT-induced dormant cells; format: cell-based, human; settings: fulvestrant 10 μM for 2 months; several models of HT-induced dormancy; FIG. 5b
Procedure: (Panel b) mtDNA level (qPCR as fold change, naïve cells was used as reference) in luminal breast cancer cells and xenograft derived cells (multiple models)±HT (fulvestrant, 10 μM for 2 months). (Panel c) Dormant MCF7 cells (HTD) were isolated and treated with 3×10^9 mCAF-derived EVs (wt-mtDNA^hi or ρ0-mtDNA^lo) weekly ×4+HT (fulvestrant, 10 μM/weekly). After 40 days, mammosphere (MS) number and mitochondrial membrane potential (Δψ) by TMRE staining (red) in HTR/mito^hi EV and HTD/mito^lo EV educated cells was determined; scale bar 15 μm. […] (Panel f) Murine mitochondrial RNA expression (14 genes, as fold change -log10scale-) by qRT-PCR in HTR and HTS cells (panel e) (reference HTDorm cells; MCF7); the expression of nuclear encoded murine (non-mitochondrial RNA) transcripts was also determined (Cox4, β2M). […]
Generation of HTD cells was performed by treating ER+(GFP+) breast cancer cell lines (MCF7, ZR751, BT474) with HT (fulvestrant, 10 μM) for 2 months. […] Viable cell number was subsequently determined using trypan blue exclusion and cell counting using bright field microscopy HTD cells were then cultured in vitro or injected in vivo for further studies. […] Proliferation was determined by Cal cein AM technique (InVitrogen). […] After 40 days, mammosphere number (bright field microscopy) was determined after 40 days. […] Tumor growth was determined by BLI and after necropsy. […]

## C[C@]12CC[C@@H]3c4ccc(O)cc4C[C@@H](CCCCCCCCC[S+]([O-])CCCC(F)(F)C(F)(F)F)[C@H]3[C@@H]1CC[C@@H]2O (some centres unmarked) [fulvestrant]
[1]
  mitochondrial complex protein expression in cells treated with HT: reduced
[2]
  reduction of mtDNA level (copy number) vs control: 70-90%
